# In US20100087474A1, “MATERIALS AND METHODS FOR ENHANCED DEGRADATION OF MUTANT PROTEINS ASSOCIATED WITH HUMAN DISEASE” (UNIVERSITY OF FLORIDA, priority 2005, published 2010):
# Where “and” joins values, the source holds several entries; their conditions need not be identical. Equal values may be shown once. Entries after “also recorded” stand apart in the source; their conditions may differ. Residues, ends and D or L forms follow the SMILES beside them. *: point of attachment. Cbz = O=C(OCc1ccccc1)*
# Assays:
# P23H opsin = P23H opsin degradation in HEK293 stable cells (immunoblot); format: cell-based, human; settings: for effect of inhibitor on FTI-277 induced P23H opsin degradation: in the presence of FTI-277, 3MA 10 mM, MG132 25 μM; for effect of inhibitor on P23H opsin degradation: inhibitor added at autophagy induction, amino acid depleted cells; for loss of P23H opsin: after 12 hours, FTI-277 50 μM, rapamycin 50 nM
# Procedure: Wild-type and P23H opsin were expressed in HEK293 tetracycline-inducible stable cell lines. The cells were grown in Dulbecco's modified Eagle's medium containing high glucose (Invitrogen, San Diego, Calif.) supplemented with 10% heat inactivated fetal bovine serum (Sigma) with antibiotic-antimycotic solution (Invitrogen, San Diego, Calif.), blasticidin (Cayla, Toulouse, France), zeocin (Invitrogen, San Diego, Calif.) at 37 C in the presence of 5.0% CO2. Opsin synthesis in cells was induced by addition of tetracycline (1 μg/ml). Baby hamster kidney (BHK) cell lines stably expressing the wild type and ΔF508 CFTR variant with a C-terminal HA epitope (CFTR-HA) (See Sharma et al., J. Cell Biol. 2004 164(6):923-33). The cells were grown in DMEM/F12 (Invitrogen, San Diego, Calif.) 1:1 ratio with 10% FBS at 37° C. in the presence of 5.0% CO2.
# Autophagy was induced in cells by incubating them in amino-acid depleted medium or treating them with rapamycin ([…]), or both. Cells were incubated under autophagy inducing conditions for two, six, or twelve hours. At the indicated time point the cells were lysed in 1% n-dodecyl-β-maltoside (DM) (Anatrace, Maumee, Ohio) in the presence of protease inhibitors (complete protease inhibitor mixture tablets (Roche Molecular Biochemicals, Mannheim, Germany) for 1 hour at 4° C. The cells were centrifuged at 36,000 rpm in a Beckman ultracentrifuge for 30 minutes at 4 C. The lysate was collected and immunoblotting was performed.
# (§1) Cell lysates were electrophoresed on 10% SDS polyacrylamide gels and transferred onto Immobilon-NC (Millipore, Billerica, Mass.) nitrocellulose membranes. The membranes were incubated at room temperature for 1 hour with a commercially available blocking buffer (Li-Cor, Lincoln, Nebr.) diluted 1:1 in PBST (PBS with 0.1% triton X-100, pH 7.4), followed by a 1 hour incubation with the indicated primary antibody. The blots were washed three times for 5 minutes each in PBST, and incubated for 1 hour with a true near infrared dye, IRDye800-conjugated secondary antibody (Rockland Immunochemicals Inc., Gilbertsville, Pa.). Finally the membranes were again washed three times with PBST and scanned in an Odyssey infrared scanner (Li-Cor, Lincoln, Nebr.). Quantitations on immunoblots were performed using Licor software. Primary antibodies included antibodies to opsin, HA-tag (Covance Princeton, N.J.), mTOR, phosphorylated mTOR (Upstate Charlottesville, Va.), calnexin, hsp70 (Stressgen, Victoria, BC, CA), Bip (BD PharMingen, San Diego, Calif.) to tubulin (Sigma Chemical, St. Louis, Mo.), 1D4 (University of British Columbia), Akt, phospho-Akt, S6K, phospho-S6K, MAPK and phosphor-MAPK (Cell Signaling Technology, Beverly, Mass.).
# Following tetracycline wash off, cells were treated for 0, 2, 6 and 12 hours then lysed in phosphate buffer containing 1% n-dodecyl-β-maltoside (DM) (Anatrace) in the presence of protease inhibitors (complete protease inhibitor mixture tablets; Roche Molecular Biochemicals) for 1 hour at 4° C. As a positive control for autophagy, cells were treated with rapamycin (50 nM), following tetracycline wash off. The lysates were centrifuged at 36,000 rpm in a Beckman ultracentrifuge for 10 min at 4C. The supernatant was collected and immunoblotting was performed. 3-methyladenine (3MA), which blocks autophagy (10 mM) (Sigma Chemical (St. Louis, Mo.)) and MG132 (25 μM) (Sigma Chemical (St. Louis, Mo.)) were also used.
# mTOR = mTOR phosphorylation in opsin-expressing HEK293 cells (immunoblot); format: cell-based, human
# Procedure: Cell lysates were electrophoresed on 10% SDS polyacrylamide gels and transferred onto Immobilon-NC (Millipore, Billerica, Mass.) nitrocellulose membranes. The membranes were incubated at room temperature for 1 hour with a commercially available blocking buffer (Li-Cor, Lincoln, Nebr.) diluted 1:1 in PBST (PBS with 0.1% triton X-100, pH 7.4), followed by a 1 hour incubation with the indicated primary antibody. The blots were washed three times for 5 minutes each in PBST, and incubated for 1 hour with a true near infrared dye, IRDye800-conjugated secondary antibody (Rockland Immunochemicals Inc., Gilbertsville, Pa.). Finally the membranes were again washed three times with PBST and scanned in an Odyssey infrared scanner (Li-Cor, Lincoln, Nebr.). Quantitations on immunoblots were performed using Licor software. […]
# [1] = test system: HEK293 cells expressing P23H opsin; assay: immunocolocalization of autophagosome markers Atg7 and Atg8 with P23H opsin; format: cell-based, human; settings: FTI-277 treatment versus untreated cells in complete medium
# Procedure: Cells were grown on glass coverslips and fixed in 4% paraformaldehyde. Following quenching with 50 mM NH4Cl, cells were washed with PBS and incubated for 1 hour with the indicated primary antibody at room temperature. Cells were washed five times in PBS and incubated with a secondary antibody (TRITC- and FITC-conjugate) for 1 hour. The cells were washed again and mounted with Vectashield containing DAPI. Primary antibodies included antibodies to LC3, LAMP-1, Atg7 (Dr Dunn), opsin, Atg7^20, Atg8 and HA-tag. The cells were then observed using a Zeiss Axiophot microscope.
# (§2) Staining with lysotracker (Molecular Probes) was also performed on live cells at 37° C. Confocal imaging was performed using the Leica TCS SP2 AOBS Spectral Confocal Microscope at 63× magnification.
# Akt = Akt phosphorylation in HEK293 cells (immunoblot); format: cell-based, human; settings: FTI-277 treatment
# Procedure: as §1
# (§3) FTI-277 (Calbiochem) was used at 50 μM. […]
# [2] = test system: HuH7 hepatoma cells stably expressing GFP-LC3; assay: GFP-LC3 localization in HuH7 hepatoma cells (confocal); format: cell-based; settings: FTI-277 treated versus fed cells
# Procedure: HuH7 hepatoma cells were stably transfected with pGFP-LC3 (Ogawa et al., Science 307(5710): 727-731, 2005) using a lipid optimization kit, the PerFect lipid (pFx-3), purchased from Invitrogen (San Diego, Calif.). PFX-3 (Invitrogen) according to manufacturer's protocols. Those colonies that grew in the presence of 0.5 mg/ml G418 were then isolated, amplified, and screened for GFP-LC3 expression by fluorescence microscopy and Western blotting.
# as §2
# [3] = test system: Bip, calnexin, calreticulin, Hsp70, Hsp90; assay: UPR/HSR chaperone levels in opsin-expressing HEK293 cells (immunoblot); format: cell-based, human; settings: FTI-277 treatment, time-dependent
# Procedure: as §1, §3
# [4] = test system: HEK293 cells expressing P23H opsin; assay: lysotracker staining of lysosomal vacuoles; format: cell-based, human
# Procedure: as §2
# [5] = test system: HEK293 cells expressing P23H opsin; assay: electron microscopy morphometric quantification of autophagic vacuoles (AVs); format: cell-based, human; settings: FTI-277 for two hours and six hours
# Procedure: P23H opsin-expressing cells were grown on ACLAR sheets in a 24-well plate. […] Following a wash with PBS, cells were fixed with 2% paraformaldehyde, 2% glutaraldehyde in 0.1M sodium cacodylate buffer, pH 7.4 for 30 minutes at 4° C. and processed for CMPase cytochemistry as previously described (31). Morphometric quantification of AVs was done on 20 electron micrographs per condition using Image J software T-test analysis was performed and P value (two-tailed significance) under or equal to 0.05 was considered significant (marked with asterisk).
# Rheb = settings: Basso et al., 2005; cited from earlier work
# MAPK = MAPK phosphorylation in HEK293 cells (immunoblot); format: cell-based, human; settings: FTI-277 treatment
# Procedure: as §1, §3
# S6 kinase = S6 kinase phosphorylation in HEK293 cells (immunoblot); format: cell-based, human; settings: within two hours of treatment
# Procedure: as §1, §3
# [6] = test system: Abcr heterozygous mutant mice; assay: ERG retinal function in mouse model of macular degeneration; format: in vivo; settings: rapamycin 20 mg/kg once per week intraperitoneal from four months old
# Procedure: abcr+/− mice are described by Mata et al., Investigative Opthalmology and Visual Science. 2001; 42:1685-1690.
# abcr+/− mice were treated with 20 mg/kg of rapamycin once per week beginning when the mice were four months old. The rapamycin was administered by intraperitoneal injection.
# (§4) The mice are dark adapted twenty-four hours prior to ERG. A mix of ketamine and xylazine was used to anesthestize mice. Dosage was determined by weight. Mouse eyes were numbed with proparacaine drops and dilated with Ak-dilate. The mouse was then placed on the machine (UTAS-E 2000) a ground electrode was inserted into the hind limb, another electrode was inserted into the neck, and a pair of electrode was used to record the ERG from each eye. After getting a baseline reading, the ERG was measured at 20, 10 and 0 dB. Monthly ERG's were measured and the B-wave amplitude was determined.
# [7] = test system: P23H heterozygous mutant mice; assay: ERG retinal function in P23H mouse model of retinitis pigmentosa; format: in vivo; settings: rapamycin once per week from twenty-one days old; course of three months
# Procedure: Mice expressing the P23H opsin protein are described by Liu et al., Journal of Cell Science 110, 2589-2597 (1997).
# Heterozygous P23H transgenic mice were treated once per week with rapamycin beginning when the mice were twenty-one days old.
# as §4
# [8] = cited from earlier work
structure (smiles),measurement,setting,value
"Cn1cnc(N)c2ncnc1-2 [3-MA, 3-methyladenine]",effect of inhibitor on FTI-277 induced P23H opsin degradation,P23H opsin,prevented degradation of opsin; also recorded: inhibited P23H opsin degradation
same,effect of inhibitor on P23H opsin degradation,P23H opsin,inhibited P23H degradation
CC1=C(/C=C/C(C)=C/C=C/C(C)=C/C=O)C(C)(C)CCC1 [11-cis retinal],levels of P23H degradation,P23H opsin; 11-cis retinal administered at the time autophagy was induced,not altered
same,P23H protein degradation profile versus wild-type opsin and untreated P23H cells,P23H opsin; 11-cis retinal during amino acid depletion,intermediate degradation profile
"COC(=O)[C@H](CCSC)NC(=O)c1ccc(NC[C@@H](N)CS)cc1-c1ccccc1 [FTI-277, methyl {N-[2-phenyl-4-N[2(R)-amino-3-mercaptopropylamino]benzoyl]}-methionate]",dephosphorylation of mTOR,mTOR; FTI-277 in combination with amino acid and serum starvation,further enhanced
same,phosphorylation of mTor,"mTOR; FTI-277 treatment, time course of twelve hours",effectively inhibited
same,colocalization of Atg7 and Atg8 with P23H opsin,[1],dramatic increase
same,stimulation of Akt phosphorylation,Akt,unaffected
same,GFP-LC3 localization,[2],localized to numerous structures consistent with its association with autophagic vacuoles
same,"levels of calnexin, calreticulin, Hsp70 and Hsp90 (UPR and HSR)",[3],did not affect
same,lysosomal numbers and size (lysotracker),[4],increase
same,increase in the fractional volume of AVs compared to untreated cells,[5],4 to 6 fold and 6 fold
same,prenylation of Rheb,Rheb,completely block
same,MAPK phosphorylation,MAPK,slight increase
same,phosphorylation of S6 kinase,S6 kinase,dramatically reduced
same,degradation of P23H opsin,P23H opsin; FTI-277 at 10 μM,No effect
same,degradation of P23H opsin,P23H opsin; FTI-277 at 50 μM,time-dependent degradation
same,loss of P23H opsin,P23H opsin,50%
same,degradation of P23H rhodopsin (Western blot),P23H opsin; fed cells treated with 10 μM or 50 μM FTI277 (FIG. 8),induced the rapid degradation
CC(C)C[C@@H](C=O)NC(=O)[C@H](CC(C)C)NC(=O)[C@H](CC(C)C)NC(=O)OCc1ccccc1 [MG132] (Cbz-Leu-Leu-Leu-aldehyde),effect of inhibitor on FTI-277 induced P23H opsin degradation,P23H opsin,did not interfere
same,effect of inhibitor on P23H opsin degradation,P23H opsin,no effect
CO[C@H]1C[C@@H]2CC[C@@H](C)[C@@](O)(O2)C(=O)C(=O)N2CCCC[C@H]2C(=O)O[C@H]([C@H](C)C[C@@H]2CC[C@@H](O)[C@H](OC)C2)CC(=O)[C@H](C)/C=C(\C)[C@@H](O)[C@@H](OC)C(=O)[C@H](C)C[C@H](C)/C=C/C=C/C=C/1C [rapamycin],retinal function (ERG),[6],rescues retinal function; also recorded: enhances retinal function
same,retinal function (ERG),[7],rescued retinal function; also recorded: enhances retinal function
same,loss of P23H opsin,P23H opsin,70%
same,absorption after oral administration,[8],absorbed rapidly and completely
